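Values below derive from 48-hour exposures of cells grown in 96-well plates, with endpoints linearly interpolated between the two concentrations bracketing the appropriate inhibition level. GI50 is the concentration that inhibits growth by half.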 Activity calls are given as the source filed them. No stated cut-off is given here; in the data, active = GI50 up to about 1.1 µM and inactive = higher. Some results are limits rather than exact numbers.

Some test systems named below: Hs-578T; MDA-MB-435; BT-549; T47D; DMS-273; DLD-1; RXF 631; LXFL 529.
Holding throughout (test): NCI anticancer screen, dose series, 48 h

Take `Fc1ccc(C(OCCN2CCN(CCCc3ccccc3)CC2)c2ccc(F)cc2)cc1`: the GI50 with Hs-578T was 3.26 µM (inactive); in the assay with MDA-MB-435 it was 3.63 µM (inactive); in the assay with BT-549 it was 7.05 µM (inactive); in the assay on T47D, 4.9 µM (inactive).
Take `O=C(CC1=NCCN1)c1ccccc1`: the GI50 in the assay with DMS-273 and in the assay with DLD-1 was > 750 µM (inactive) throughout.
For the compound `CC(C)(C)OC(=O)NC(Cc1ccccc1)C(=O)N[C@H]1c2ccsc2/C(=N/O)[C@H]1O` (stereo partly specified), the GI50 with MDA-MB-435, in the assay on BT-549 and in the assay with T47D was > 100 µM (inactive) each time.
For `COc1ccc(/C(Cl)=C(\C=O)c2ccc(OC)c(OC)c2)cc1`, the GI50 in the assay with RXF 631 was 54.3 µM (inactive); in the assay on LXFL 529, 30.4 µM (inactive).

For the origin of these results see ChEMBL document CHEMBL1201862, “PubChem BioAssay data set” (2004).
